Each molecule was assayed against T1, glutaminase (GAC) (Homo sapiens, UniProt O94925) (assay: Glutaminase coupled endpoint enzymatic assay (Example A)). Conditions: inhibition of glutaminase; assay of Example A or Example B.
T1 sequence (O94925 55-598 isoform O94925-3 limits assumed): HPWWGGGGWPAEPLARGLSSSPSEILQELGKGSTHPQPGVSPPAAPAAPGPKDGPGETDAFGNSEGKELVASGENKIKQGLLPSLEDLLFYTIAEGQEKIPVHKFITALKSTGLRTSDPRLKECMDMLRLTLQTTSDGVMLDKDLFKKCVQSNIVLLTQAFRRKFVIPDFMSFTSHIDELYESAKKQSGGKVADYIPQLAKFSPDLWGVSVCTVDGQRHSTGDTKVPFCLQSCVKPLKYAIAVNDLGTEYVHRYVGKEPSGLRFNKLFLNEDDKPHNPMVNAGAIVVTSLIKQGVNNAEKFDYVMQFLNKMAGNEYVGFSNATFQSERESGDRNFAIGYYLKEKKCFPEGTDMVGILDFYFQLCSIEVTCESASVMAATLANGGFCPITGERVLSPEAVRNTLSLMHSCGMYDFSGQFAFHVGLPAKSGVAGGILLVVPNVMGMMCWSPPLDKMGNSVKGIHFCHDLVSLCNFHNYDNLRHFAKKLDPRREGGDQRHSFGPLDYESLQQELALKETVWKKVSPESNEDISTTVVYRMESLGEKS
Assay type: biochemical
Source text: In certain embodiments, exemplary compounds of Formula I include the compounds described in Table 1 and in the Examples. A compound described herein may be tested for its ability to inhibit glutaminase, e.g., by an assay as described in the Examples. For simplicity, the inhibition activity of these compounds is represented as an IC50 tested in an assay of Example A or Example B in Table 1. […] “N/A” refers to compounds wherein the IC50 is unavailable.
In this example, the enzymatic activity of glutaminase is measured through a coupled endpoint assay. Glutamine and phosphate are supplied to GAC at a concentration equal to Km and AC50, respectively, and GAC concentration is adjusted to give a linear reaction for 60 minutes. The glutamate produced is converted to 2-OG by a kinetic excess of glutamate dehydrogenase. This second step is configured for 2×Km for NAD, since excess NAD is inhibitory. However, a kinetic excess of the third coupling enzyme, diaphorase, recycles NAD from NADH to keep the NAD concentration constant during the timecourse of the assay. Diaphorase, also supplied in kinetic excess, oxidizes NADH produced by GDH back to NAD with the concomitant reduction of rezasurin to the highly fluorescent resorufin. Resorufin in measured after the assay is stopped with SDS by Ex544/Em590. A reduction in the signal indicates inhibition of some component of the coupled enzyme system. Prospective hits are counterscreened against GDH/diaphorase alone to remove hits to the coupling enzyme system in a second assay.
2. Buffers • 2× Buffer (300 mM NaCl, 100 mM HEPES pH 8.5, 0.1% BSA, 0.5 mM EDTA, 100 mM sodium phosphate pH 8.5) • 5× Substrate Mix (1× Buffer final concentration, with 13 mM glutamine, 100 μM resazurin, 50 μg/ml diaphorase) • 1.2× Enzyme Mix (1× Buffer final concentration, with 0.875 μg/ml GAC, 1.56 mM NAD, 6.25 units/ml GDH) • Stop Mix (6% SDS in ddH2O) Reaction Procedure • 1. Add 1 μl compound in 100% DMSO • 2. Add 40 μl of Enzyme Mix and incubate for 60 minute at room temperature • 3. Add 10 μl of Substrate Mix to start reaction • 4. Stop reaction with 25 μl of 6% SDS and read Ex544 Em 590

| Structure (SMILES) | IC50 [nM] |
| --- | --- |
| COC1CN(c2cccc(CC(=O)Nc3nnc([C@H]4CCC[C@H](c5nnc(NC(=O)Cc6cccc(N7CC(OC)C7)n6)s5)C4)s3)n2)C1 [Compound 270, N,N′-(5,5′-((1S,3S)-cyclohexane-1,3-diyl)bis(1,3,4-thiadiazole-5,2-diyl))bis(2-(6-(3-methoxyazetidin-1-yl)pyridin-2-yl)acetamide)] | < 100 |
| O=C(Cc1ccc(F)cn1)Nc1nnc([C@H]2CCC[C@H](c3nnc(NC(=O)Cc4ccc(F)cn4)s3)C2)s1 [Compound 240, N,N′-(5,5′-((1S,3S)-cyclohexane-1,3-diyl)bis(1,3,4-thiadiazole-5,2-diyl))bis(2-(5-fluoropyridin-2-yl)acetamide)] | < 100 |
| O=C(Cc1ccccc1[N+](=O)[O-])Nc1nnc([C@H]2CCC[C@H](c3nnc(NC(=O)Cc4ccccc4[N+](=O)[O-])s3)C2)s1 [Compound 57, N,N′-(5,5′-((1S,3S)-cyclohexane-1,3-diyl)bis(1,3,4-thiadiazole-5,2-diyl))bis(2-(2-nitrophenyl)acetamide)] | 100 to 500 |
| CC(=O)Nc1nnc([C@@H]2CCC[C@@H](c3nnc(NC(=O)Cc4cn(C)c5ccccc45)s3)C2)s1 [Compound 13] | 100 to 500 |
| COc1cccc(CC(=O)Nc2nnc(C3CCC(c4nnc(NC(=O)Cc5cccc(OC)c5)s4)C3)s2)c1 (stereo not shown) [Compound 68] | 100 to 500 |
| O=C(Cc1cccc(N2CC(O)C2)n1)Nc1nnc([C@H]2CCC[C@H](c3nnc(NC(=O)Cc4cccc(N5CC(O)C5)n4)s3)C2)s1 [Compound 249, N,N′-(5,5′-((1S,3S)-cyclohexane-1,3-diyl)bis(1,3,4-thiadiazole-5,2-diyl))bis(2-(6-(3-hydroxyazetidin-1-yl)pyridin-2-yl)acetamide)] | < 100 |
| O=C(Cc1ccccn1)Nc1nnc([C@@H]2CC[C@H](c3nnc(NC(=O)Cc4ccccn4)s3)C2)s1 [Compound 32] | 500 to 1000 |
| O=C(Cc1ccc(N2CC(F)(F)C2)cc1)Nc1nnc([C@H]2CCC[C@H](c3nnc(NC(=O)Cc4ccc(N5CC(F)(F)C5)cc4)s3)C2)s1 [Compound 266, N,N′-(5,5′-((1S,3S)-cyclohexane-1,3-diyl)bis(1,3,4-thiadiazole-5,2-diyl))bis(2-(4-(3,3-difluoroazetidin-1-yl)phenyl)acetamide)] | < 100 |
| O=C(Cc1cccc(NC2CC2)c1)Nc1nnc([C@H]2CCC[C@H](c3nnc(NC(=O)Cc4cccc(NC5CC5)c4)s3)C2)s1 [Compound 261, N,N′-(5,5′-((1S,3S)-cyclohexane-1,3-diyl)bis(1,3,4-thiadiazole-5,2-diyl))bis(2-(3-(cyclopropylamino)phenyl)acetamide)] | < 100 |
| NCc1cccc(CC(=O)Nc2nnc([C@H]3CCC[C@H](c4nnc(NC(=O)Cc5cccc(CN)n5)s4)C3)s2)n1 [Compound 244, N,N′-(5,5′-((1S,3S)-cyclohexane-1,3-diyl)bis(1,3,4-thiadiazole-5,2-diyl))bis(2-(6-(aminomethyl)pyridin-2-yl)acetamide)] | 100 to 500 |
| Nc1cccc(CC(=O)Nc2nnc([C@H]3CCC[C@H](c4nnc(NC(=O)Cc5cccc(N)n5)s4)C3)s2)n1 [Compound 232, N,N′-(5,5′-((1S,3S)-cyclohexane-1,3-diyl)bis(1,3,4-thiadiazole-5,2-diyl))bis(2-(6-aminopyridin-2-yl)acetamide)] | < 100 |
| O=C(Cc1c[nH]cn1)Nc1nnc([C@H]2CCC[C@H](c3nnc(NC(=O)Cc4c[nH]cn4)s3)C2)s1 [Compound 273, N,N′-(5,5′-((1S,3S)-cyclohexane-1,3-diyl)bis(1,3,4-thiadiazole-5,2-diyl))bis(2-(1H-imidazol-4-yl)acetamide)] | < 100 |
| CC(=O)Nc1nnc([C@H]2CCC[C@H](c3nnc(NC(=O)Cc4ccc(N5CC(F)(F)C5)cn4)s3)C2)s1 [Compound 253, N-(5-((1S,3S)-3-(5-acetamido-1,3,4-thiadiazol-2-yl)cyclohexyl)-1,3,4-thiadiazol-2-yl)-2-(5-(3,3-difluoroazetidin-1-yl)pyridin-2-yl)acetamide] | 100 to 500 |
| COc1ccc(CC(=O)Nc2nnc([C@H]3CC[C@H](c4nnc(NC(=O)Cc5ccc(OC)nc5)s4)C3)s2)cn1 [Compound 286, N,N′-(5,5′-((1S,3S)-cyclopentane-1,3-diyl)bis(1,3,4-thiadiazole-5,2-diyl))bis(2-(6-methoxypyridin-3-yl)acetamide)] | < 100 |
| O=C(Cc1ccccn1)Nc1nnc(CC2CC(Cc3nnc(NC(=O)Cc4ccccn4)s3)C2)s1 (stereo not shown) [Compound 7, N,N′-(5,5′-(cyclobutane-1,3-diylbis(methylene))bis(1,3,4-thiadiazole-5,2-diyl))bis(2-(pyridin-2-yl)acetamide)] | 2000 to 10000 |
| O=C(Cc1ccc(C2CCNCC2)cc1)Nc1nnc([C@H]2CCC[C@H](c3nnc(NC(=O)Cc4ccc(C5CCNCC5)cc4)s3)C2)s1 [Compound 290] | < 100 |
| COc1ccc(CC(=O)Nc2nnc(C3CCC(c4nnc(NC(=O)Cc5ccc(OC)cc5)s4)C3)s2)cc1 (stereo not shown) [Compound 109] | 100 to 500 |
| Nc1nnc([C@@H]2CCC[C@@H](c3nnc(NC(=O)Cc4ccccn4)s3)C2)s1 [Compound 58] | 1000 to 2000 |
| O=C(Cc1cccc(N2CCNCC2)c1)Nc1nnc([C@H]2CCC[C@H](c3nnc(NC(=O)Cc4cccc(N5CCNCC5)c4)s3)C2)s1 [Compound 263, N,N′-(5,5′-((1S,3S)-cyclohexane-1,3-diyl)bis(1,3,4-thiadiazole-5,2-diyl))bis(2-(3-(piperazin-1-yl)phenyl)acetamide)] | < 100 |
| NCc1cccc(CC(=O)Nc2nnc([C@H]3CCC[C@H](c4nnc(NC(=O)Cc5cccc(CN)c5)s4)C3)s2)c1 [Compound 245, N,N′-(5,5′-((1S,3S)-cyclohexane-1,3-diyl)bis(1,3,4-thiadiazole-5,2-diyl))bis(2-(3-(aminomethyl)phenyl)acetamide)] | < 100 |
| CCC(=O)Nc1nnc([C@H]2CCC[C@H](c3nnc(NC(=O)Cc4cccc(N5CC(F)(F)C5)n4)s3)C2)s1 [Compound 282, N-(5-((1S,3S)-3-(5-(2-(6-(3,3-difluoroazetidin-1-yl)pyridin-2-yl)acetamido)-1,3,4-thiadiazol-2-yl)cyclohexyl)-1,3,4-thiadiazol-2-yl)propionamide] | < 100 |
| O=C(Cc1ccccc1)Nc1nnc(CC2CC(Cc3nnc(NC(=O)Cc4ccccc4)s3)C2)s1 (stereo not shown) [Compound 8, N,N′-(5,5′-(cyclobutane-1,3-diylbis(methylene))bis(1,3,4-thiadiazole-5,2-diyl))bis(2-phenylacetamide)] | 100 to 500 |
| Nc1ccc(CC(=O)Nc2nnc([C@H]3CCC[C@H](c4nnc(NC(=O)Cc5ccc(N)cn5)s4)C3)s2)nc1 [Compound 233, N,N′-(5,5′-((1S,3S)-cyclohexane-1,3-diyl)bis(1,3,4-thiadiazole-5,2-diyl))bis(2-(5-aminopyridin-2-yl)acetamide)] | < 100 |
| CCN(CC)c1cccc(CC(=O)Nc2nnc([C@H]3CCC[C@H](c4nnc(NC(=O)Cc5cccc(N(CC)CC)c5)s4)C3)s2)c1 [Compound 235, N,N′-(5,5′-((1S,3S)-cyclohexane-1,3-diyl)bis(1,3,4-thiadiazole-5,2-diyl))bis(2-(3-(diethylamino)phenyl)acetamide)] | 500 to 1000 |
| COc1cccc(CC(=O)Nc2nnc([C@@H]3CCCC[C@H](c4nnc(NC(=O)Cc5cccc(OC)c5)s4)C3)s2)c1 [Compound 128] | 500 to 1000 |
